Source: patent US20250314644A1, “METHODS COMPRISING DETECTION OF ADP-HEPTOSE” (CHILDREN'S HOSPITAL MEDICAL CENTER, priority 2023, published 2025)

How the values were obtained:
[1] = tested on: Dnmt3a^−/− HSCs relative to WT HSCs; experiment: In vitro HSC competition assay; type: cell-based, mouse; settings: co-culture, ADP-heptose for 14 days
Description: The polyvinyl alcohol-based in vitro HSC expansion protocol was adapted as previously described. (Wilkinson, A. C., et al. Long-term ex vivo haematopoietic-stem-cell expansion allows nonconditioned transplantation. Nature 571, 117-121 (2019) and Wilkinson, A. C., Ishida, R., Nakauchi, H. & Yamazaki, S. Long-term ex vivo expansion of mouse hematopoietic stem cells. Nat Protoc 15, 628-648 (2020).) 50 HSCs from WT-GFP (C57BL/6-Tg(UBC-GFP)30Scha/J, Cat no. 004353, Jackson Labs) and 50 HSCs from Dnmt3a^−/− mice were sorted directly into each well of a fibronectin-coated 96-well plate (Cat no. 08-774-60, Fisher Scientific) with Ham's F12 nutrient mix media (Cat no. 11765054, Thermo Fisher Scientific) containing final concentrations of 1× penicillin-streptomycin-glutamine (Cat no. 10378-016, Thermo Fisher Scientific), 10 mM HEPES (Cat no. 15630080, Thermo Fisher Scientific), 1× insulin-transferrin-selenium-ethanolamine (ITS-X, Cat no. 51500056, Thermo Fisher Scientific), 100 ng/mL recombinant murine TPO (Cat no. […] After 14 days of ADP-heptose treatment, cells were harvested, counted by trypan blue exclusion assay, and analyzed by flow cytometry. To enumerate cells, a defined number of CountBright Absolute Counting Beads (Thermo Fisher Scientific, Cat no. C36950) were added to each sample and cell count was back calculated to the proportion of the total that were run through the cytometer.

healthy BM cells = experiment: Xenograft of healthy cells in NSG mice treated with ADP-heptose; type: in vivo, human; settings: immunocompromised mice
Description: NOD.Cg-Prkdc^scidIl2rg^tm1Wj1/SzJ (NSG)^75 were bred and maintained by the CCHMC Comprehensive Mouse Core. For patient derived xenografts, NSG mice (sub-lethally conditioned with 2 Gy of whole-body irradiation) were injected tail vein with healthy CD34+ cells (1×10^6 cells per mouse) and MDS patient cells (5×10^6 cells per mouse) in 200 μl of sterile PBS. Mice were then given sterile water or ADP-heptose (0.5 mg/kg) dissolved in sterile water at the indicated times. Mice were monitored for human engraftment in BM aspirates Briefly, 1×10^6 BM cells from each sample were incubated with huCD45 (Cat no. 555485, BDPharmingen) and huCD33 (Cat no. 555450, BDPharmingen) antibodies diluted 1:100 in a solution of PBS, 0.2% FBS for 30 minutes on ice. Cells were washed once with PBS, resuspended in PBS with 0.2% FBS, and immediately analyzed by flow cytometry.

NF-κB in THP1 cells = experiment: NF-κB signaling (immunoblot) and THP1-Blue NF-kB SEAP reporter; type: cell-based, human
Description: Protein concentration was evaluated by bicinchoninic acid (BCA) assay (Pierce, Cat #23225). SDS sample buffer was added to the lysates and the proteins were separated by SDS-polyacrylamide gel electrophoresis, transferred to PVDF or nitrocellulose membranes (BIO-RAD, Cat #1620112), and analyzed by immunoblotting. […] Membranes were visualized using ECL Western Blotting Substrate (Pierce, #32106) or SuperSignal West Femto Substrate (Thermo Scientific, #34096), imaged on a BIO-RAD ChemiDoc Touch Imaging system and analyzed with Image lab software 6.0.1 (Biorad) or Image J (22930834).
THP1-Blue NF-kB SEAP reporter cells (Cat no. thp-nkfb, Invivogen) were grown at 20,000 cells per well (200 μl) in a 96-well plate with the indicated agonists and inhibitors for 24 hours. […] The absorbance was read at 630 nm for a final readout. For analysis, media absorbance was subtracted, experimental values were normalized to vehicle control, and triplicates were averaged.

Nc1ncnc2c1ncn2[C@@H]1O[C@H](COP(=O)(O)OP(=O)(O)O[C@@H]2O[C@H]([C@H](O)CO)[C@@H](O)[C@H](O)[C@@H]2O)[C@@H](O)[C@H]1O [ADP-heptose, ADP-D-glycero-β-D-manno-heptose]
in vitro competition of Dnmt3a^−/− HSCs relative to WT HSCs [1]: competitive advantage | engraftment of healthy BM cells (healthy BM cells): no effect | NF-kB activation (NF-κB in THP1 cells; TIFA-deficient THP1 cells): unable to activate NF-kB | canonical NF-κB signaling and transcriptional activation (NF-κB in THP1 cells; human leukemic cells (THP1)): induce canonical NF-κB signaling and transcriptional activation
